{
  "source": "patent US12570642B2",
  "about": "“GLP-IR modulating compounds” (Gilead Sciences, Inc., priority 2021, dated 2026)",
  "note": "pEC50: −log10 of the molar value.",
  "data": [
    {"molecular_target": "GLP-1R (Homo sapiens, UniProt P43220)", "sequence (P43220 24-463)": "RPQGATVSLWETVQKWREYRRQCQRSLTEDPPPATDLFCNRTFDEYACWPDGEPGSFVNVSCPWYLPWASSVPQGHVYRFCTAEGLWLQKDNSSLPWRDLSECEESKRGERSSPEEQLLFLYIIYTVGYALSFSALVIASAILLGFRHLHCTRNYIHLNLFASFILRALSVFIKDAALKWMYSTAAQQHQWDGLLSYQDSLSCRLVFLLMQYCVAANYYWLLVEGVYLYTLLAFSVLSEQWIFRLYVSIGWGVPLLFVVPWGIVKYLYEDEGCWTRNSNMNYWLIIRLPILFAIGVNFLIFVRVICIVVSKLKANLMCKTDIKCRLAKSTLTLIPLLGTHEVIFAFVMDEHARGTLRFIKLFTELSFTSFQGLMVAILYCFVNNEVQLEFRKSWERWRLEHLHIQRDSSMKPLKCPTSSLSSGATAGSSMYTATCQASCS", "test": "GLP-1R Activation - cAMP Assay", "assay_type": "cell-based", "settings": "cAMP increase in CHO cells stably expressing GLP-1R; each compound run on one of the two cAMP assays (Assay 1 or Assay 2, not specified)", "how_it_was_run": "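CHO cells stably expressing GLP-1R, plated at 1,000 cells/well overnight, then equilibrated 1 h in HBSS with 20 mM Hepes and 0.1% BSA. Agonist added as 10-point dose response for 30 min at 37 °C. cAMP measured by HTRF (Cisbio Gs Dynamic kit); EC50 from sigmoidal fit.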", "values": [
      {"smiles": "Cn1ncc(-c2ccc(COc3cccc(-c4cc(F)c(Cc5nc6ccc(C(=O)O)cc6n5[C@@H]5COCC5(C)C)cc4F)n3)c(F)c2)n1", "note": "[Example 553, (S)-2-(2,5-difluoro-4-(6-((2-fluoro-4-(2-methyl-2H-1,2,3-triazol-4-yl)benzyl)oxy)pyridin-2-yl)benzyl)-1-(4,4-dimethyltetrahydrofuran-3-yl)-1H-benzo[d]imidazole-6-carboxylic acid]", "pEC50": 9.88},
      {"smiles": "Cn1nncc1-c1ccc(COc2cccc(-c3cc(F)c(Cc4nc5ccc(C(=O)O)cc5n4[C@@H]4COCC4(C)C)cc3F)n2)c(F)c1", "note": "[Example 554, (S)-2-(2,5-difluoro-4-(6-((2-fluoro-4-(1-methyl-1H-1,2,3-triazol-5-yl)benzyl)oxy)pyridin-2-yl)benzyl)-1-(4,4-dimethyltetrahydrofuran-3-yl)-1H-benzo[d]imidazole-6-carboxylic acid]", "pEC50": 10.59},
      {"smiles": "Cn1cc(-c2cc(F)c(COc3cccc(-c4cc(F)c(Cc5nc6ccc(C(=O)O)cc6n5[C@@H]5COCC5(C)C)cc4F)n3)cn2)nn1", "note": "[Example 555, (S)-2-(2,5-difluoro-4-(6-((4-fluoro-6-(1-methyl-1H-1,2,3-triazol-4-yl)pyridin-3-yl)methoxy)pyridin-2-yl)benzyl)-1-(4,4-dimethyltetrahydrofuran-3-yl)-1H-benzo[d]imidazole-6-carboxylic acid]", "pEC50": 10.33},
      {"smiles": "COC[C@H]1COC[C@H]1n1c(Cc2cc(F)c(-c3cccc(OCc4ccc(C(F)(F)F)cc4)n3)cc2F)nc2ccc(C(=O)O)cc21", "note": "[Example 556, 2-(2,5-difluoro-4-(6-((4-(trifluoromethyl)benzyl)oxy)pyridin-2-yl)benzyl)-1-((3S,4S)-4-(methoxymethyl)tetrahydrofuran-3-yl)-1H-benzo[d]imidazole-6-carboxylic acid]", "pEC50": 9.58},
      {"smiles": "CC1(C)COC[C@H]1n1c(Cc2cc(F)c(-c3ccc(F)c(OCc4ccc(F)cc4)n3)cc2F)nc2ccc(C(=O)O)cc21", "note": "[Example 557, (S)-2-(2,5-difluoro-4-(5-fluoro-6-((4-fluorobenzyl)oxy)pyridin-2-yl)benzyl)-1-(4,4-dimethyltetrahydrofuran-3-yl)-1H-benzo[d]imidazole-6-carboxylic acid]", "pEC50": 10.51},
      {"smiles": "CC1(C)COC[C@H]1n1c(Cc2c(F)cc(-c3ccc(F)c(OCc4ccc(F)cc4)n3)c(F)c2F)nc2ccc(C(=O)O)cc21", "note": "[Example 558, (S)-1-(4,4-dimethyltetrahydrofuran-3-yl)-2-(2,3,6-trifluoro-4-(5-fluoro-6-((4-fluorobenzyl)oxy)pyridin-2-yl)benzyl)-1H-benzo[d]imidazole-6-carboxylic acid]", "pEC50": 9.88},
      {"smiles": "COC[C@H]1COC[C@H]1n1c(Cc2cc(F)c(-c3ccc(F)c(OCc4ccc(Cl)cc4F)c3)cc2F)nc2ccc(C(=O)O)cc21", "note": "[Example 559, 2-((3′-((4-chloro-2-fluorobenzyl)oxy)-2,4′,5-trifluoro-[1,1′-biphenyl]-4-yl)methyl)-1-((3S,4S)-4-(methoxymethyl)tetrahydrofuran-3-yl)-1H-benzo[d]imidazole-6-carboxylic acid]", "pEC50": 9.71},
      {"smiles": "O=C(O)c1ccc2nc(Cc3cc(F)c(-c4cccc(OCc5cnc(-n6ccnn6)cc5Cl)n4)cc3F)n(CCOC(F)F)c2c1", "note": "[Example 560, 2-(4-(6-((4-chloro-6-(1H-1,2,3-triazol-1-yl)pyridin-3-yl)methoxy)pyridin-2-yl)-2,5-difluorobenzyl)-1-(2-(difluoromethoxy)ethyl)-1H-benzo[d]imidazole-6-carboxylic acid]", "pEC50": 9.72},
      {"smiles": "CC(C)OCCn1c(Cc2cc(F)c(-c3cccc(OCc4cnc(-n5ccnn5)cc4Cl)n3)cc2F)nc2ccc(C(=O)O)cc21", "note": "[Example 561, 2-(4-(6-((4-chloro-6-(1H-1,2,3-triazol-1-yl)pyridin-3-yl)methoxy)pyridin-2-yl)-2,5-difluorobenzyl)-1-(2-isopropoxyethyl)-1H-benzo[d]imidazole-6-carboxylic acid]", "pEC50": 9.25},
      {"smiles": "O=C(O)c1ccc2nc(Cc3cc(F)c(-c4cccc(OCc5cnc(-n6ccnn6)cc5Cl)n4)cc3F)n(CCOC3CC3)c2c1", "note": "[Example 562, 2-(4-(6-((4-chloro-6-(1H-1,2,3-triazol-1-yl)pyridin-3-yl)methoxy)pyridin-2-yl)-2,5-difluorobenzyl)-1-(2-cyclopropoxyethyl)-1H-benzo[d]imidazole-6-carboxylic acid]", "pEC50": 9.68},
      {"smiles": "COC(C)(C)Cn1c(Cc2cc(F)c(-c3cccc(OCc4cnc(-n5ccnn5)cc4Cl)n3)cc2F)nc2ccc(C(=O)O)cc21", "note": "[Example 563, 2-(4-(6-((4-chloro-6-(1H-1,2,3-triazol-1-yl)pyridin-3-yl)methoxy)pyridin-2-yl)-2,5-difluorobenzyl)-1-(2-methoxy-2-methylpropyl)-1H-benzo[d]imidazole-6-carboxylic acid]", "pEC50": 10.39},
      {"smiles": "CO[C@@H](C)[C@H](C)n1c(Cc2cc(F)c(-c3cccc(OCc4ccc(Cl)cc4F)n3)cc2F)nc2ccc(C(=O)O)cc21", "note": "[Example 564, 2-(4-(6-((4-chloro-2-fluorobenzyl)oxy)pyridin-2-yl)-2,5-difluorobenzyl)-1-((2S,3S)-3-methoxybutan-2-yl)-1H-benzo[d]imidazole-6-carboxylic acid]", "pEC50": 8.64},
      {"smiles": "CO[C@H](C)[C@@H](C)n1c(Cc2cc(F)c(-c3cccc(OCc4ccc(Cl)cc4F)n3)cc2F)nc2ccc(C(=O)O)cc21", "note": "[Example 565, 2-(4-(6-((4-chloro-2-fluorobenzyl)oxy)pyridin-2-yl)-2,5-difluorobenzyl)-1-((2R,3R)-3-methoxybutan-2-yl)-1H-benzo[d]imidazole-6-carboxylic acid]", "pEC50": 9.71},
      {"smiles": "CC(C)COCCn1c(Cc2cc(F)c(-c3cccc(OCc4ccc(Cl)cc4F)n3)cc2F)nc2ccc(C(=O)O)cc21", "note": "[Example 566, 2-(4-(6-((4-chloro-2-fluorobenzyl)oxy)pyridin-2-yl)-2,5-difluorobenzyl)-1-(2-isobutoxyethyl)-1H-benzo[d]imidazole-6-carboxylic acid]", "pEC50": 8.39},
      {"smiles": "COCCn1c(Cc2cc(F)c(-c3cccc(OCc4cnc(-n5nc6c(n5)CCCC6)cc4Cl)n3)cc2F)nc2ccc(C(=O)O)cc21", "note": "[Example 567, 2-(4-(6-((4-chloro-6-(4,5,6,7-tetrahydro-2H-benzo[d][1,2,3]triazol-2-yl)pyridin-3-yl)methoxy)pyridin-2-yl)-2,5-difluorobenzyl)-1-(2-methoxyethyl)-1H-benzo[d]imidazole-6-carboxylic acid]", "pEC50": 7.00},
      {"smiles": "COCCn1c(Cc2cc(F)c(-c3cccc(OCc4cnc(-n5nnc6c5CCCC6)cc4Cl)n3)cc2F)nc2ccc(C(=O)O)cc21", "note": "[Example 568, 2-(4-(6-((4-chloro-6-(4,5,6,7-tetrahydro-1H-benzo[d][1,2,3]triazol-1-yl)pyridin-3-yl)methoxy)pyridin-2-yl)-2,5-difluorobenzyl)-1-(2-methoxyethyl)-1H-benzo[d]imidazole-6-carboxylic acid]", "pEC50": 8.81},
      {"smiles": "CC(C)COCCn1c(Cc2cc(F)c(-c3cccc(OCc4cnc(-n5ccnn5)cc4Cl)n3)cc2F)nc2ccc(C(=O)O)cc21", "note": "[Example 569, 2-(4-(6-((4-chloro-6-(1H-1,2,3-triazol-1-yl)pyridin-3-yl)methoxy)pyridin-2-yl)-2,5-difluorobenzyl)-1-(2-isobutoxyethyl)-1H-benzo[d]imidazole-6-carboxylic acid]", "pEC50": 9.01}
    ]}
  ]
}
